Measurements: patent US20240075243A1, “REUSABLE HYDROPHILIC URINARY CATHETER ASSEMBLY” (WELLSPECT AB, priority 2021, published 2024)

Tested on: E. coli
Assay: Disinfection effect of hydration liquids on catheters immersed in E. coli suspension
Format: cell-based
Settings: 4 hours immersion, incubated at 37 deg. C for 19.5 hours
Source text: In another line of experiments, hydration liquids with different types of disinfection mediums were used, and evaluated in respect of the disinfection effect. The hydration liquid comprised 5 wt % of PVP K30, and various disinfection mediums. As comparative examples, a hydration liquid with PVP K30 but without any disinfection medium was used, as well as a hydration liquid only comprising water. For the tests, catheters were first activated in a hydration liquid containing a disinfectant. Thereafter, the catheters were immersed in an E. coli suspension. The catheters were then rinsed in plain water, before again being immersed in the same hydration liquid used for the activation for 4 hours. Thereafter, the catheters were transferred into a growth medium and incubated at 37 deg. C for 19.5 hours. After this, it was determined whether, or not, bacterial growth had occurred during incubation.

O=[N+]([O-])[O-].[Ag+] [Silver nitrate, silver nitrate]
Result after incubation (disinfection medium 0.05 wt % in hydration liquid with 5 wt % PVP K30): No growth | Result after incubation (disinfection medium 0.2 wt % in hydration liquid with 5 wt % PVP K30): No growth

OCl [Sodium hypochlorite, sodium hypochlorite]
Result after incubation (disinfection medium 0.02 wt % in hydration liquid with 5 wt % PVP K30): No growth

Oc1cc(Cl)ccc1Oc1ccc(Cl)cc1Cl [Triclosan, triclosan]
Result after incubation (disinfection medium 0.075 wt % in hydration liquid with 5 wt % PVP K30): No growth | Result after incubation (disinfection medium 0.3 wt % in hydration liquid with 5 wt % PVP K30): No growth

benzalkonium chloride
Result after incubation (disinfection medium 0.025 wt % in hydration liquid with 5 wt % PVP K30): No growth | Result after incubation (disinfection medium 0.1 wt % in hydration liquid with 5 wt % PVP K30): No growth
